This is an account of results in US20140121216A1, “INDOLEAMINE DERIVATIVES FOR THE TREATMENT OF CENTRAL NERVOUS SYSTEM DISEASES” (Adamed Sp. z o.o., priority 2011, published 2014).

In assay [1] the target is T1, 5-HT6 (h), human recombinant (CHO cells) (Homo sapiens, UniProt P50406).
T1 construct: expressed in transfected cells; host or cells: CHO cells
Description: Cellular functional assay 5-HT6 (h) agonism. It counts as cell-based. The following applies: compound 1×10^−6 M, control 10 μM serotonin, read-out: 5-HT6-ag [%]. The protocol: (§1) The results are expressed as a percent of control specific agonist response ((measured specific response/control specific agonist response)×100) obtained in the presence of tested compound.
(§2) The EC50 values (concentration producing a half-maximal specific response) and IC50 values (concentration causing a half-maximal inhibition of the control specific agonist response) were determined by non-linear regression analysis of the concentration-response curves generated with mean replicate values using Hill equation curve fitting (Y=D+[(A−D)/(1+(C/C50)nH)], where Y=specific response, D=minimum specific response, A=maximum specific response, C=compound concentration, and C50=EC50 or IC50, and nH=slope factor).
(§3) For the antagonists, the apparent dissociation constants (Kb) were calculated using the modified Cheng Prusoff equation (Kb=IC50/(1+(A/EC50A)), where A=concentration of reference agonist in the assay, and EC50A=EC50 value of the reference agonist).

Assay [2] has as its target T2, D2S (h), human recombinant (HEK-293 cells) (Homo sapiens, UniProt P14416).
T2 construct: expressed in transfected cells; host or cells: HEK-293 cells
The experiment in a line: Cellular functional assay D2S (h) agonism. It counts as cell-based. The settings on record: HEK293; compound 1×10^−6 M; control 3 μM dopamine; read-out: D2-ag [%]. The protocol:
as §1, §2, §3

Assay [3] has as its target T1, 5-HT6 (h), human recombinant (CHO cells). The experiment in a line: Cellular functional assay 5-HT6 (h) antagonism. It counts as cell-based. The following applies: compound 1×10^−6 M, stimulus serotonin 100 nM, read-out: 5-HT6-antag [%]. The method, then:
as §1, §2, §3

The target of assay [4] is T2, D2S (h), human recombinant (HEK-293 cells). Description: Cellular functional assay D2S (h) antagonism. It counts as cell-based. The settings on record: HEK293; compound 1×10^−6 M; stimulus dopamine 30 nM; read-out: D2-antag [%]. The method, then: as §1, §2, §3
Assay [5] relates to α1 adrenergic receptors (rat cerebral cortex). Description: Binding assay, α1 adrenergic receptor ([3H]prazosin). The settings on record: compound 1×10^−6 M. The protocol:
(§4) The specific ligand binding to the receptors is defined as the difference between the total binding and the non-specific binding determined in the presence of an excess of unlabelled ligand.
(§5) The inhibition constants (Ki) were calculated using the Cheng Prusoff equation (Ki=IC50/(1+(L/KD)), where L=concentration of radioligand in the assay, and KD=affinity of the radioligand for the receptor). A Scatchard plot is used to determine the Kd. The IC50 values (concentration causing a half-maximal inhibition of control specific binding) and Hill coefficients (nH) were determined by non-linear regression analysis of the competition curves generated with mean replicate values using Hill equation curve fitting (Y=D+[(A−D)/(1+(C/C50)^nH)], where Y=specific binding, D=minimum specific binding, A=maximum specific binding, C=compound concentration, C50=IC50, and nH=slope factor). This analysis was performed using a software developed at Cerep (Hill software) and validated by comparison with data generated by the commercial software SigmaPlot® 4.0 for Windows® (©1997 by SPSS Inc.).
Experimental conditions for tests are given in Table 7, and results of tests for representative compounds are given in Tables 8a and 8b (α1 receptors) and in Tables 9a and 9b (α2C receptors).

For assay [6], the target named is T3, D2 receptor, human recombinant (GeneBLAzer D2-Gqo5 CHO-K1 DA) (Homo sapiens, UniProt P14416).
T3 construct: purchased Invitrogen; host or cells: CHO-K1 (GeneBLAzer D2-Gqo5 CHO-K1 DA)
Description: Binding assay, dopaminergic D2 receptor ([3H]methylspiperone). The following applies: compound 1×10^−6 M. The method, then:
(§6) Moreover, ability of the compounds of the invention to block potassium channel hERG was tested.
as §4
as §5, with “factor).” for “factor). This analysis was performed using a software developed at Cerep (Hill software) and validated by comparison with data generated by the commercial software SigmaPlot® 4.0 for Windows® (©1997 by SPSS Inc.).”

Assay [7] addresses T4, 5-HT7 receptor, human recombinant (Homo sapiens, UniProt P34969).
T4 construct: purchased PerkinElmer
Description: Binding assay, 5-HT7 receptor ([3H]LSD). The following applies: compound 1×10^−6 M. The method, then:
as §6, §4
as §5, with “factor).” for “factor). This analysis was performed using a software developed at Cerep (Hill software) and validated by comparison with data generated by the commercial software SigmaPlot® 4.0 for Windows® (©1997 by SPSS Inc.).”

The target in assay [8] is T5, human recombinant SERT receptor (CHO cells) (Homo sapiens, UniProt P31645).
T5 construct: expressed in transfected cells; host or cells: CHO cells
Description: Binding assay, serotonine transporter (SERT) ([3H]imipramine). The settings on record: compound 1×10^−6 M. The method, then:
as §6, §4
as §5, with “factor).” for “factor). This analysis was performed using a software developed at Cerep (Hill software) and validated by comparison with data generated by the commercial software SigmaPlot® 4.0 for Windows® (©1997 by SPSS Inc.).”

Assay [9] deals with T6, 5-HT6 receptor, human recombinant (Homo sapiens, UniProt P50406).
T6 construct: purchased PerkinElmer
Description: Binding assay, 5-HT6 receptor ([3H]LSD). The following applies: compound 1×10^−6 M. The protocol: as §6, §4
as §5, with “factor).” for “factor). This analysis was performed using a software developed at Cerep (Hill software) and validated by comparison with data generated by the commercial software SigmaPlot® 4.0 for Windows® (©1997 by SPSS Inc.).”

In assay [10] the target is T7, human recombinant D3 receptors (Homo sapiens, UniProt P35462).
T7 construct: purchased PerkinElmer
The experiment in a line: Binding assay, dopaminergic D3 receptor ([3H]methylspiperone). The settings on record: compound 1×10^−6 M. The protocol: as §6, §4
as §5, with “factor).” for “factor). This analysis was performed using a software developed at Cerep (Hill software) and validated by comparison with data generated by the commercial software SigmaPlot® 4.0 for Windows® (©1997 by SPSS Inc.).”

Assay [11] has as its target 5-HT2A receptor, human recombinant (Homo sapiens, UniProt P28223). The experiment in a line: Binding assay, 5-HT2A receptor ([3H]ketanserin). More on the design: purchased PerkinElmer. The following applies: compound 1×10^−6 M. The method, then: as §6, §4
as §5, with “factor).” for “factor). This analysis was performed using a software developed at Cerep (Hill software) and validated by comparison with data generated by the commercial software SigmaPlot® 4.0 for Windows® (©1997 by SPSS Inc.).”

Assay [12] addresses T8, 5-HT1A receptor (rat hippocampus) (Rattus norvegicus, UniProt P19327).
T8 construct: hippocampus; from tissue; host or cells: rat hippocampus
T8 sequence (P19327 1-422): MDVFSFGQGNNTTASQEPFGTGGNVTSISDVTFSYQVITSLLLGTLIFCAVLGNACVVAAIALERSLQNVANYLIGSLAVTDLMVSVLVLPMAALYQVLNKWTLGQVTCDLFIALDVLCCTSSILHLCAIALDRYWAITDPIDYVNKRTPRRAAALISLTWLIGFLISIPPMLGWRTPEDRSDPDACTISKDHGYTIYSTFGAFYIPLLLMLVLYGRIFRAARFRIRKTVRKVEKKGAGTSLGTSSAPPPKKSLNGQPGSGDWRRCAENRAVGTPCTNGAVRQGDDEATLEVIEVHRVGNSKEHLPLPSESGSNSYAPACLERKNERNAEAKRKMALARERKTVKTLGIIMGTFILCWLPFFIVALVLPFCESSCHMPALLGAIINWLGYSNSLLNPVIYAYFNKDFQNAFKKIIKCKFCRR
The experiment in a line: Binding assay, 5-HT1A receptor ([3H]8-OH-DPAT). The settings on record: compound 1×10^−6 M. The protocol:
as §6, §4
as §5, with “factor).” for “factor). This analysis was performed using a software developed at Cerep (Hill software) and validated by comparison with data generated by the commercial software SigmaPlot® 4.0 for Windows® (©1997 by SPSS Inc.).”

T1 sequence (P50406 whole entry): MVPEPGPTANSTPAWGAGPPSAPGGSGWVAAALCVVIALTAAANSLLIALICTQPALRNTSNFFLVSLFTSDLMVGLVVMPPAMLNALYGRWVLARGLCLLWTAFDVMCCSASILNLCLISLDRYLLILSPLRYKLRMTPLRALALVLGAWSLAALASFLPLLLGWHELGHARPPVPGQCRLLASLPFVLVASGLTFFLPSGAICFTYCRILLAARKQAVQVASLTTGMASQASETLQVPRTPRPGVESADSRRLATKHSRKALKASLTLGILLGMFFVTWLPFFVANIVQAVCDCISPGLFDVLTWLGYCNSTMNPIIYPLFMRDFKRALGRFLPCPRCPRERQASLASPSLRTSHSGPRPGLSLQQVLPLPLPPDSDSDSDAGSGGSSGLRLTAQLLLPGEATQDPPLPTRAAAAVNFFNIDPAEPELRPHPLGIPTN
T2 sequence (P14416 1-414 isoform P14416-2): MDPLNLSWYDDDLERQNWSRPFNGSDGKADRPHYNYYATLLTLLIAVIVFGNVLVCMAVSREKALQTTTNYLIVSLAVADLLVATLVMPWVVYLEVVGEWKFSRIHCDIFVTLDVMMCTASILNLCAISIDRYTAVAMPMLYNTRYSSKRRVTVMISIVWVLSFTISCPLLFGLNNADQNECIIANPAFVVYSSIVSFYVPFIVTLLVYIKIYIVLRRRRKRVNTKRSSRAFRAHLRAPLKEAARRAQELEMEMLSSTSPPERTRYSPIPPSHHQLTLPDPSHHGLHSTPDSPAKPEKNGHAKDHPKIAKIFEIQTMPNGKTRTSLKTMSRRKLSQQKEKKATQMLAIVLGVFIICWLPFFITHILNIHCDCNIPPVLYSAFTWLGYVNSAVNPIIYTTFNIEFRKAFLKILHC
T3 sequence (P14416 whole entry): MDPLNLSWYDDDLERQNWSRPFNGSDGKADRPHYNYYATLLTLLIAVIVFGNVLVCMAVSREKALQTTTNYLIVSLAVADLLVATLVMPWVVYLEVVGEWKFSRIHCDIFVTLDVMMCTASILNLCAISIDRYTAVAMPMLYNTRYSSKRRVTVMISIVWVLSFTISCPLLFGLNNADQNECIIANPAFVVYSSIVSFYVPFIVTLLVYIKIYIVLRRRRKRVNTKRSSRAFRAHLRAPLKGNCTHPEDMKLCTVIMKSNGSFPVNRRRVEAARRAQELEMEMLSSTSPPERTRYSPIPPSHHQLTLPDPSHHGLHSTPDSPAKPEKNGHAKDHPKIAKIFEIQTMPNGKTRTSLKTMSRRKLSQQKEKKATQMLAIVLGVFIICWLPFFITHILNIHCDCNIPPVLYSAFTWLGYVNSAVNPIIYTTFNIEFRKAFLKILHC
5-HT2A receptor, human recombinant, sequence (P28223 whole entry): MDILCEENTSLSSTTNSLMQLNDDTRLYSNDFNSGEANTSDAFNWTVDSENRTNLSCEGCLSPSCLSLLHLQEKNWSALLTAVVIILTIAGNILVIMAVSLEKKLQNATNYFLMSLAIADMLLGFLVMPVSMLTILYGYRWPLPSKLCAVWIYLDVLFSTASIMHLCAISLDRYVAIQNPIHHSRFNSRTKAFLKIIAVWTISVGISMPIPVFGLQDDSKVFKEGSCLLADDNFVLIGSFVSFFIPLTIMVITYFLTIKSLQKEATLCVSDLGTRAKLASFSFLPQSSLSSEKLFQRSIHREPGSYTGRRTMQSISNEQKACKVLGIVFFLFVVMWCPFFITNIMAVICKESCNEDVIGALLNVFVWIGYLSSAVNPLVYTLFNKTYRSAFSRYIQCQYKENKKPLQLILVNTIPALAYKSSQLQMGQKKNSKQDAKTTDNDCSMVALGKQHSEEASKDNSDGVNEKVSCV
T7 sequence (P35462 whole entry): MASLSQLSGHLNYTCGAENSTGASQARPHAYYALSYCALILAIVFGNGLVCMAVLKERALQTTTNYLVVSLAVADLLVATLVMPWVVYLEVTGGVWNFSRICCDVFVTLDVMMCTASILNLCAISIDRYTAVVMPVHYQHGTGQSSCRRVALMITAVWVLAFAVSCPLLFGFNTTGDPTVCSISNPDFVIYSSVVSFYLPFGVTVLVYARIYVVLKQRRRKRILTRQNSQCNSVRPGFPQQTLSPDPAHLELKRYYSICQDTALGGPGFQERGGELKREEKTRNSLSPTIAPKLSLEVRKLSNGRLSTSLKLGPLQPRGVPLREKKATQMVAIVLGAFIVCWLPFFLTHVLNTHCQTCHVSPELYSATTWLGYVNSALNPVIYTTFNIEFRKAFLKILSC
T4 sequence (P34969 whole entry): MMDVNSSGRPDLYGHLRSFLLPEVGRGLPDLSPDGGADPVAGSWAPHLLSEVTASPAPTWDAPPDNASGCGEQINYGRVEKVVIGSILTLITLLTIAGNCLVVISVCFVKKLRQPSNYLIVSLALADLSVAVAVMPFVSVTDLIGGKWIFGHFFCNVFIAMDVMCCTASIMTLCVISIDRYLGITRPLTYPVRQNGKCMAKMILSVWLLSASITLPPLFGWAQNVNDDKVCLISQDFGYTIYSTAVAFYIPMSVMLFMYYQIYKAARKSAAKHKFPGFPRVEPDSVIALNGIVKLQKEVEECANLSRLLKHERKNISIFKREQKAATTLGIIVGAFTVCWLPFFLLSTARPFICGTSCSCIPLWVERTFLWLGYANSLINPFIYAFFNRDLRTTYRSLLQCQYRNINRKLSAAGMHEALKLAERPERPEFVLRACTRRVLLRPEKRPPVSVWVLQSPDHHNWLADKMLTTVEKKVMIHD
T5 sequence (P31645 whole entry): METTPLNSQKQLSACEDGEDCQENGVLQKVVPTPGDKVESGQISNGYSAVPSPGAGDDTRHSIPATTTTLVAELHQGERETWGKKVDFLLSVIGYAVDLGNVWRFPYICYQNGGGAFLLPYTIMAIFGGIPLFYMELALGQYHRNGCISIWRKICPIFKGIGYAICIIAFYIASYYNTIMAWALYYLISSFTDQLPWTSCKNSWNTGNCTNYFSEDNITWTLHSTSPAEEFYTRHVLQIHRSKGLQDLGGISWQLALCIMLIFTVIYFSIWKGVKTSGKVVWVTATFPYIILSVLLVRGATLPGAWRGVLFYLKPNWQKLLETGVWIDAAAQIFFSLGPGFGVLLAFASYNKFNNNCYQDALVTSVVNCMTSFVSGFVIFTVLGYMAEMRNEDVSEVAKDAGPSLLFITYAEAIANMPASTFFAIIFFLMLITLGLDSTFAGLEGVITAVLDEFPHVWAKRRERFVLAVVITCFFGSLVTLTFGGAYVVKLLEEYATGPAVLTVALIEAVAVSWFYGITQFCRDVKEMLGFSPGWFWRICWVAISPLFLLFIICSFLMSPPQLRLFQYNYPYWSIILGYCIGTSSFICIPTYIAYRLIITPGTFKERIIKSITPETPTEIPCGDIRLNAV
T6 sequence (P50406 whole entry): as the sequence (P50406 whole entry) above

As to `O=S(=O)(c1ccccc1)n1ccc2c(N3CCN(CCCOc4ccccc4)CC3)cccc21` [Compound 12, 4-(4-(3-Phenoxypropyl)piperazin-1-yl)-1-(phenylsulphonyl)-1H-indole], the activation at 1 µM in assay [1] was -2%; in assay [2], 11%. Besides, the inhibition at 1 µM in assay [3] and in assay [4] was 73% throughout. Besides, the “α1 [%] affinity test result” value in assay [5] was 83%.

Regarding `O=S(=O)(c1ccccc1)n1ccc2c(N3CCN(CCCOc4ccc(F)cc4)CC3)cccc21` [Compound 15, 4-(4-(3-(4-Fluorophenoxy)propyl)piperazin-1-yl)-1-(phenylsulphonyl)-1H-indole], the activation at 1 µM in assay [1] was 0%; in [2], 11%. For the same compound, the inhibition at 1 µM in assay [3] came out at 88%; in assay [4], 68%. Moreover, the “α1 [%] affinity test result” value in [5] came to 93%.

On to `CC(C)Oc1ccccc1OCCCN1CCN(c2cccc3c2ccn3S(=O)(=O)c2ccccc2)CC1` [Compound 21, 4-(4-(3-(2-(1-Methylethoxy)phenoxy)propyl)piperazin-1-0)-1-(phenylsulphonyl)-1H-indole], for which the “D2 [%] binding assay result” value in assay [6] was 90%. Further, in assay [7], the “5-HT7 [%] binding assay result” value is 78%. Further, in [8], the “SERT [%] affinity test result” value turned out to be 13%. Further, the “5-HT6 [%] binding assay result” value in assay [9] turned out to be 97%. Besides, the “D3 [%] binding assay result” value in assay [10] is 86%. For the same compound, in assay [11], the “5-HT2A [%] binding assay result” value is on record as 80%. Also, the “α1 [%] affinity test result” value in assay [5] was 83%. In assay [12], the “5-HT1A [%] binding assay result” value is 91%.

In the case of `O=S(=O)(c1ccccc1)n1ccc2c(N3CCN(CCCOc4ccc5ccoc5c4)CC3)cccc21` [Compound 25, 4-(4-(3-(Benzofuran-6-yloxy)propyl)piperazin-1-yl)-1-(phenylsulphonyl)-1H-indole], the activation at 1 µM is -4% in assay [1] and 30% in [2]. In addition, the inhibition at 1 µM in [3] was determined as 98%; in assay [4], 75%. For the same compound, the “α1 [%] affinity test result” value in assay [5] turned out to be 25%.

Regarding `NC(=O)c1ccccc1OCCCN1CCN(c2cccc3c2ccn3Cc2ccccc2)CC1` [Compound 60, 2-[3-[4-(1-Benzylindol-4-yl)piperazin-1-yl]propoxy]benzamide], the “α1 [%] affinity test result” value in assay [5] is reported as 56%.

For the compound `O=C1CCc2ccc(OCCCCN3CCN(c4cccc5c4ccn5Cc4ccccc4F)CC3)cc2N1` [Compound 61, 7-[4-[4-[1-[(2-Fluorophenyl)methyl]indol-4-yl]piperazin-1-yl]butoxy]-3,4-dihydro-1H-quinolin-2-one], the “α1 [%] affinity test result” value in [5] is given as 13%.

In the case of `NC(=O)c1ccccc1OCCCN1CCN(c2cccc3c2ccn3Cc2ccccc2F)CC1` [Compound 62, 2-[3-[4-[1-[(2-Fluorophenyl)methyl]indol-4-yl]piperazin-1-yl]propoxy]-benzamide], in assay [5], the “α1 [%] affinity test result” value is reported as 50%.

For the compound `NC(=O)c1ccccc1OCCCN1CCN(c2cccc3c2ccn3Cc2cccc(F)c2)CC1` [Compound 64, 2-[3-[4-[1-[(3-Fluorophenyl)methyl]indol-4-yl]piperazin-1-yl]propoxy]-benzamide], the “α1 [%] affinity test result” value in [5] stood at 57%.

As to `O=C1CCc2ccc(OCCCCN3CCN(c4cccc5c4ccn5Cc4ccc(F)cc4)CC3)cc2N1` [Compound 65, 7-[4-[4-[1-[(4-Fluorophenyl)methyl]indol-4-yl]piperazin-1-yl]butoxy]-3,4-dihydro-1H-quinolin-2-one], the “α1 [%] affinity test result” value in [5] turned out to be 59%.

For the compound `NC(=O)c1ccccc1OCCCN1CCN(c2cccc3c2ccn3Cc2ccc(F)cc2)CC1` [Compound 66, 2-[3-[4-[1-[(4-Fluorophenyl)methyl]indol-4-yl]piperazin-1-yl]propoxy]-benzamide], the “α1 [%] affinity test result” value in assay [5] is on record as 42%.

Take `NC(=O)c1ccccc1OCCCN1CCN(c2cccc3c2ccn3Cc2cccc(Cl)c2)CC1` [Compound 68, 2-[3-[4-[1-[(3-Chlorophenyl)methyl]indol-4-yl]piperazin-1-yl]propoxy]-benzamide]: the “α1 [%] affinity test result” value in assay [5] came to 56%.

Turning to `O=S(=O)(c1ccccc1)n1ccc2c(N3CCN(CCCCOc4ccccc4)CC3)cccc21` [Compound 69, 1(Benzenesulfonyl)-4-[4-(4-phenoxybutyl)piperazin-1-yl]indole], the “α1 [%] affinity test result” value in assay [5] is 49%.

On to `O=S(=O)(c1ccccc1)n1ccc2c(N3CCN(CCCCOc4ccc(F)cc4)CC3)cccc21` [Compound 70, 1-(Benzenesulfonyl)-4-[4-[4-(4-fluorophenoxy)butyl]piperazin-1-yl]-indole], for which, in assay [5], the “α1 [%] affinity test result” value stood at 54%.

`CC(C)Oc1ccccc1OCCCCN1CCN(c2cccc3c2ccn3S(=O)(=O)c2ccccc2)CC1` [Compound 71, 1-(Benzenesulfonyl)-4-[4-[4-(2-isopropoxyphenoxy)butyl]-piperazin-1-yl]indole]: the “α1 [%] affinity test result” value in assay [5] stood at 40%.
